Data published in paper PMC9995496, “A screen for MeCP2-TBL1 interaction inhibitors using a luminescence-based assay” (Scientific Reports, 2023).

molecular target: T1, MeCP2-TBL1 interaction (MeCP2-SmBiT / TBL1-LgBiT) (Mus musculus, UniProt Q9QXE7); assay: MeCP2-TBL1 NanoLuc luciferase complementation assay (cell-free, extracts of transfected HEK293 cells); type: binding, human; details: primary screen of Asinex library, single well per compound;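 note: each compound tested at 20 µM final concentration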
T1 construct: expressed in transfected cells; crude lysate used as a cell-free assay
T1 sequence (Q9QXE7 166-527): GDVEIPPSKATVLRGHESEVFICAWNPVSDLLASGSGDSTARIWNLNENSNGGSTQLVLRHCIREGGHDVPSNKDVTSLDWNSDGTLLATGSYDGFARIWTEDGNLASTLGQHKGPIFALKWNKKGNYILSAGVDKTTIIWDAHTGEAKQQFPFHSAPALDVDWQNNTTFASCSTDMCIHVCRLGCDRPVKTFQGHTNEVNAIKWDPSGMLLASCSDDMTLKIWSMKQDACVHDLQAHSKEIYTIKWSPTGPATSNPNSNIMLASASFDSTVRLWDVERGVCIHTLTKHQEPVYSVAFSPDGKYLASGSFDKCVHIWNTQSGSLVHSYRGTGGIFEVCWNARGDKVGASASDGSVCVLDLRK
Summary of the method: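 Cell-free split NanoLuc: lysate of HEK293 cells co-expressing the MeCP2 C-terminal half-SmBiT and TBL1 WD domain-LgBiT, mixed 1:1 with furimazine. After 30 min at room temperature, luminescence was plate-median normalized.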

Inhibition percent	SMILES
-1.82	C[C@]12C[C@@H](Cc3ccccc3)N(C(=O)c3ccc(OCCN4CCCCC4)cc3)[C@H]1CCCC(=O)N2 [BDH_33629014]
1.86	CN1C(=O)N(CC(=O)N2CCCCC2CCNC(=O)c2ccccc2)C(=O)C12CCCCC2 (stereo not drawn) [BDH_33629465]
-2.28	C[C@]12C[C@@H](c3cccc(C(F)(F)F)c3)N(C(=O)CCc3nc4ccccc4[nH]3)[C@H]1CCCCC(=O)N2 [BDH_33631539]
-1.79	O=C1CNC(=O)C2(C/C=C/C[C@H]3COCC[C@H]3N1)CCN(c1ncccn1)CC2 [BDH_33727647]

same assay, conditions: primary screen of the Asinex library, sheet "Sargen output Asinex library", one well per compound

Inhibition percent	SMILES
-0.70%	Cc1ccc(NC(=O)c2cccc(C3CCCN3C(=O)CCCN3Cc4ccccc4C3)n2)nc1 (stereo not drawn) [BDH_33628747]
-0.36%	CNc1nc(C2CCCCN2C(=O)CCNc2nc(C)cc(C)n2)nc2c1CCN(C(C)=O)C2 (stereo not drawn) [BDH_33629184]
1.15%	CC(C)c1nccn1CCC(=O)N1[C@H](Cc2ccccc2)C[C@]2(C)NC(=O)CCC[C@H]12 [BDH_33632337]
-1.87%	COc1cccc([C@H]2C[C@@](C)(NC(=O)C(C)C)[C@@H]3CC[C@@H](C)C[C@H]3O2)c1OCCN(C)C [BDH_33687810]
-2.28%	O=C1CNC(=O)C2(C/C=C/C[C@H]3COCC[C@H]3N1)CCN(C(=O)/C=C/c1ccccc1)CC2 [BDH_33728358]
-3.47%	O=C1CNC(=O)C2(C/C=C/C[C@H]3COCC[C@@H]3N1)CCN(C(=O)COc1ccccc1)CC2 [BDH_33728395]
-2.62%	Cc1ncc(C(=O)N2CCC[C@@H]3[C@H]2C/C=C/Cc2ccccc2OCC(=O)N3C)c(C)n1 [BDH_33728424]

same assay, conditions: primary screen of the Asinex library, sheet "Sargen output Asinex library", one well per compound, Batch Ref. 1

Inhibition percent	SMILES
0.10%	Cn1c(=O)c2c(ncn2CCC(=O)N2[C@H](Cc3ccccc3)C[C@]3(C)NC(=O)CCC[C@H]23)n(C)c1=O [BDH_33628646]
-0.76%	Cn1c(=O)n(C)c2cc(CCC(=O)N3CCCCC3CCNC(=O)c3ccccc3)ccc21 (stereo not drawn) [BDH_33628839]
-1.24%	Cc1cc(O)cc(=O)n1CCC(=O)N1CCCCC1C1CCN(C(=O)Cc2ccccc2F)CC1 (stereo not drawn) [BDH_33629102]
-2.07%	CNC(=O)c1sc2nc(C3CCCCN3C(=O)CCCNc3ncccn3)ccc2c1N (stereo not drawn) [BDH_33629130]
-0.39%	O=C(NCCC1CCCCN1C(=O)CCN1C(=O)COc2ccc(Cl)cc21)c1ccccc1 (stereo not drawn) [BDH_33629495]
-1.81%	C[C@]12C[C@@H](Cc3ccccc3)N(C(=O)c3ccc(OCCN4CCCC4)cc3)[C@H]1CCCC(=O)N2 [BDH_33629575]
-0.000826%	C[C@]12C[C@@H](Cc3ccccc3)N(C(=O)C3CCN(Cc4cccnc4)CC3)[C@H]1CCCC(=O)N2 [BDH_33630330]
-0.42%	CC(=O)N1CCCCC[C@@H]2[C@@H]1C[C@@H](Cc1ccccc1)N2C(=O)c1cccc(Cn2cncn2)c1 [BDH_33630828]
7.42%	C[C@]12C[C@@H](Cc3ccccc3)N(C(=O)c3ccc(NCc4cccnc4)cc3)[C@H]1CCCC(=O)N2 [BDH_33630910]
-1.89%	Cc1cc2ncn(CCC(=O)N3[C@H](Cc4ccccc4)C[C@]4(C)NC(=O)CCC[C@H]34)c2cc1C [BDH_33631266]
-1.65%	O=C(NCCC1CCCCN1C(=O)CCn1cnc2ccccc21)c1ccccc1 (stereo not drawn) [BDH_33631954]
2.60%	COc1cc2c(cc1[C@H]1C[C@@H](NC(C)=O)CC3(CCCCC3)O1)OCCCO2 [BDH_33665894]
0.0118%	CC(C)(O)[C@@H]1CC[C@](C)([C@H]2CC3(CCN(C(=O)c4ccc(-c5ccc(S(C)(=O)=O)cc5)cc4)CC3)CO2)O1 [BDH_33696510]
-0.89%	COc1cccc(CN2CCC3(C/C=C/COc4ccccc4C(=O)NCCNC3=O)CC2)c1F [BDH_33701964]
4.94%	O=C1NCCNC(=O)C2(C/C=C/COc3ccccc31)CCN(C(=O)CCc1cccs1)CC2 [BDH_33701979]
-0.08%	Cc1nc(C(=O)N2CCCC3(C/C=C/COc4ccccc4C(=O)NCCNC3=O)C2)co1 (stereo not drawn) [BDH_33731677]
